Source: patent publication US7029857B1, “Processes for obtaining compounds employing SNORF72 receptors” (H. Lundbeck A/S, priority 1999, dated 2006)
Where “and” joins values, the source holds several entries; their conditions need not be identical. Identical values can stand only once. No end group written: not given here.

Columns and labels:
[1] = cited from earlier work
[2] = system: isolated rat inner adrenocortical cells; conditions: absence of medullary cells; cited from earlier work
SNORF62 [3] = target: T1, SNORF62 (Homo sapiens, UniProt Q9HB89); experiment: Intracellular Ca2+ release (FLIPR) in SNORF62-transfected COS-7 cells; type: cell-based; parameters: The SNORF62 cDNA codes for a protein of 426 amino acids; expressed in transfected cells; host or cells: COS-7 (transient, DEAE-dextran); conditions: for maximum response / agonist efficacy at SNORF62: functional assay, data not shown
T1 sequence (Q9HB89 1-426): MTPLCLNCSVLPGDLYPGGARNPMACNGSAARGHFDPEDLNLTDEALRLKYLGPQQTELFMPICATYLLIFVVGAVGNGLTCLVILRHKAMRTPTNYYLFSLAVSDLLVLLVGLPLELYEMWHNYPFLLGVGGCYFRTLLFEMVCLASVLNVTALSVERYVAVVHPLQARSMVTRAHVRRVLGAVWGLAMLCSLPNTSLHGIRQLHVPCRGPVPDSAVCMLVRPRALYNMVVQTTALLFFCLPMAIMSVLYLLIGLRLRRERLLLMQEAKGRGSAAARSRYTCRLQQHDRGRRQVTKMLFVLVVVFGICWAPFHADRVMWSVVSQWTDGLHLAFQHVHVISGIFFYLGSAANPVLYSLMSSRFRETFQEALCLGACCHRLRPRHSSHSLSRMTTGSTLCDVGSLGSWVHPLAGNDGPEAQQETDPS
Procedure: (§1) A typical protocol for the DEAE-dextran method as applied to COS-7 and HEK293 cells is described as follows. Cells to be used for transfection are split 24 hours prior to the transfection to provide flasks which are 70–80% confluent at the time of transfection. Briefly, 8 μg of receptor DNA plus 8 μg of any additional DNA needed (e.g. Gα protein expression vector, reporter construct, antibiotic resistance marker, mock vector, etc.) are added to 9 ml of complete DMEM plus DEAE-dextran mixture (10 mg/ml in PBS). Cells plated into a T225 flask (sub-confluent) are washed once with PBS and the DNA mixture is added to each flask. The cells are allowed to incubate for 30 minutes at 37° C., 5% CO2. Following the incubation, 36 ml of complete DMEM with 80 μM chloroquine is added to each flask and allowed to incubate an additional 3 hours. The medium is then aspirated and 24 ml of complete medium containing 10% DMSO for exactly 2 minutes and then aspirated. The cells are then washed 2 times with PBS and 30 ml of complete DMEM added to each flask. The cells are then allowed to incubate over night. The next day the cells are harvested by trypsinization and reseeded into 96 well plates.
(§2) Cells expressing the receptor of interest are plated into clear, flat-bottom, black-walled 96-well plates (Costar) at a density of 80,000–150,000 cells per well and allowed to incubate for 48 hr at 5% CO2, 37° C. The growth medium is aspirated and 100 μL of loading medium containing Fluo-3 dye is added to each well. The loading medium contains: 20 mM HEPES (Sigma), 0.1% BSA (Sigma), dye/pluronic acid mixture (e.g. 1 mM Fluo-3/AM (Molecular Probes) and 10% pluronic acid (Molecular Probes) mixed immediately before use), and 2.5 mM probenecid (Sigma)(prepared fresh). The cells are allowed to incubate for about 1 hour at 5% CO2, 37° C.
(§3) The compounds of interest are diluted in wash buffer (Hank's BSS (without phenol red), 20 mM HEPES, 2.5 mM probenecid) to a 4× final concentration and aliquoted into a clear v-bottom plate (Nunc). Following the dye incubation, the cells are washed 4 times to remove excess dye using a Denley plate washer. 100 μL final volume of wash buffer is then added to each cell well. Compounds are added to the cell plates and responses are measured using the FLIPR™ instrument. The data are then collected and analyzed using the FLIPR™ software and Graphpad Prism.
(§4) COS-7 cells were transiently transfected with SNORF62, SNORF72 or vector DNA (mock) as described in Materials and Methods.

rat adrenal gland slices = conditions: cited from earlier work
SNORF62 [4] = target: T1, SNORF62; experiment: Inositol phosphate (IP) release in SNORF62-transfected COS-7 cells; type: cell-based; parameters: The SNORF62 cDNA codes for a protein of 426 amino acids; expressed in transfected cells; host or cells: COS-7 (transient, DEAE-dextran)
Procedure: Human SNORF62 receptor-mediated activation and human SNORF72 receptor-mediated activation of the inositol phosphate (IP) second messenger pathways were assessed by radiometric measurement of IP products.
For example, in a 96 well microplate format assay, COS-7 cells expressing the receptor of interest were plated at a density of 70,000 cells per well and allowed to incubate for 24 hours. The cells were then labeled with 0.5 μCi [^3H]myo-inositol overnight at 37° C., 5% CO2. Immediately before the assay, the medium was removed and replaced with 180 μL of Phosphate-Buffered Saline (PBS) containing 10 mM LiCl. The plates were then incubated for 20 min at 37° C., 5% CO2. Following the incubation, the cells were challenged with agonist (20 μl/well; 10× concentration) for 30 min at 37° C. The challenge was terminated by the addition of 100 μL of 5% v/v trichloroacetic acid, followed by incubation at 4° C. for greater than 30 minutes. Total IPs were isolated from the lysate by ion exchange chromatography. Briefly, the lysed contents of the wells were transferred to a Multiscreen HV filter plate (Millipore) containing Dowex AG1-X8 (200–400 mesh, formate form). The filter plates were prepared adding 100 μL of Dowex AG1-X8 suspension (50% v/v, water: resin) to each well. The filter plates were placed on a vacuum manifold to wash or elute the resin bed. Each well was first washed 2 times with 200 μl of 5 mM myo-inositol. Total [^3H]inositol phosphates were eluted with 75 μl of 1.2M ammonium formate/0.1M formic acid solution into 96-well plates. 200 μL of scintillation cocktail was added to each well, and the radioactivity was determined by liquid scintillation counting.

rat uterus membranes = conditions: binding site in rat uterus; cited from earlier work
rat SNORF72 = target: T2, rat SNORF72 (Rattus norvegicus, UniProt Q9ESQ4); experiment: Intracellular Ca2+ release (FLIPR) in rat SNORF72-transfected COS-7 cells; type: cell-based; conditions: FIG. 22 at 100 nM
T2 construct: corresponding to a predicted protein of 395 amino acids; expressed in transfected cells; host or cells: COS-7 (transient)
Procedure: as §1, with “The medium is then aspirated and 24 ml of complete medium containing 10% DMSO for exactly 2 minutes and then aspirated. The cells are then washed 2 times with PBS and 30 ml of complete DMEM added to each flask. The cells are then allowed to incubate over night. The next day the cells are harvested by trypsinization and reseeded into 96 well plates.” left out
In another method, the measurement of intracellular Ca^2+ can also be performed on a 96-well (or higher) format and with alternative Ca^2+-sensitive indicators, preferred examples of these are: aequorin, Fluo-3, Fluo-4, Fluo-5, Calcium Green-1, Oregon Green, and 488 BAPTA. After activation of the receptors with agonist ligands the emission elicited by the change of intracellular Ca^2+ concentration can be measured by a luminometer, or a fluorescence imager; a preferred example of this is the fluorescence imager plate reader (FLIPR™, Molecular Devices). […]

SNORF72 [5] = target: T3, SNORF72 (Homo sapiens, UniProt Q9GZQ4, A395T); experiment: Intracellular Ca2+ release (FLIPR) in SNORF72-transfected COS-7 cells; type: cell-based; conditions: SNORF72-transfected COS-7 cells, peptides at 300 nM (FIG. 8)
T3 construct: expressed in transfected cells; host or cells: COS-7 (transient, DEAE-dextran)
Procedure: as §1, §2, §3, §4

[6] = system: isolated rat uterus preparations; conditions: read-out: EC50 concentration for contraction; cited from earlier work
SNORF72 [7] = target: T3, SNORF72; experiment: Displacement of [125I]rat NMU-23 binding in SNORF72-transfected COS-7 membranes; conditions: SNORF72 membranes, displacement of [125I]rat NMU-23; read-out: average pKi (converted)
Procedure: (§5) The specifics of preparing such cell membranes may in some cases be determined by the nature of the ensuing assay but typically involve harvesting whole cells and disrupting the cell pellet by sonication in ice cold buffer (e.g. 20 mM Tris HCl, mM EDTA, pH 7.4 at 4° C.). The resulting crude cell lysate is cleared of cell debris by low speed centrifugation at 200×g for 5 min at 4° C. The cleared supernatant is then centrifuged at 40,000×g for 20 min at 4° C., and the resulting membrane pellet is washed by suspending in ice cold buffer and repeating the high speed centrifugation step. The final washed membrane pellet is resuspended in assay buffer. Protein concentrations are determined by the method of Bradford (1976) using bovine serum albumin as a standard. The membranes may be used immediately or frozen for later use.
(§6) Radioligand binding assays were performed by diluting membranes prepared from cells expressing the receptor in 50 mM Tris buffer (pH=7.4 at 0° C.) containing 0.1% bovine serum albumin (Sigma), aprotinin (0.005 mg/ml, Boehringer Mannheim) and bestatin (0.1 mM, Sigma) as protease inhibitors. The final protein concentration in the assay was 12–40 μg/ml. […] The bound ligand was separated from free by filtration through GF/B filters presoaked in 0.5% polyethyleneimine (PEI), using a Tomtec (Wallac) vacuum filtration device. After addition of Ready Safe (Beckman) scintillation fluid, bound radioactivity was quantitated using a Trilux (Wallac) scintillation counter (approximately 40% counting efficiency of bound counts). Data was fit to non-linear curves using GraphPad Prism.
(§7) In this manner, agonist or antagonist compounds that bind to the receptor may be identified as they inhibit the binding of the labeled ligand to the membrane protein of cells expressing the said receptor. Non-specific binding was defined as the amount of radioactivity remaining after incubation of membrane protein in the presence of 100 nM of the unlabeled peptide corresponding to the radioligand used. In equilibrium saturation binding assays membrane preparations or intact cells transfected with the receptor are incubated in the presence of increasing concentrations of the labeled compound to determine the binding affinity of the labeled ligand.

SNORF62 [8] = target: T1, SNORF62; experiment: Displacement of [125I]rat NMU-23 binding in SNORF62-transfected COS-7 membranes; parameters: The SNORF62 cDNA codes for a protein of 426 amino acids; expressed in transfected cells; host or cells: COS-7 (transient, DEAE-dextran); conditions: SNORF62 membranes, displacement of [125I]rat NMU-23; read-out: average pKi (converted)
Procedure: as §5, §6, §7

SNORF72 [9] = target: T3, SNORF72; experiment: Saturation binding of radioligands to SNORF72-transfected COS-7 membranes; conditions: two values n=2
Procedure: COS-7 cells were transiently transfected with SNORF72 and membranes were prepared as described in Materials and Methods. […] Results presented are representative of 2 experiments performed in duplicate.
(§8) Cell membranes expressing the receptor protein of this invention are useful for certain types of assays including but not restricted to ligand binding assays, GTP-γ-S binding assays, and others. The specifics of preparing such cell membranes may in some cases be determined by the nature of the ensuing assay but typically involve harvesting whole cells and disrupting the cell pellet by sonication in ice cold buffer (e.g. 20 mM Tris HCl, mM EDTA, pH 7.4 at 4° C.). The resulting crude cell lysate is cleared of cell debris by low speed centrifugation at 200×g for 5 min at 4° C. […] Protein concentrations are determined by the method of Bradford (1976) using bovine serum albumin as a standard. […]
(§9) Radioligand binding assays were performed by diluting membranes prepared from cells expressing the receptor in 50 mM Tris buffer (pH=7.4 at 0° C.) containing 0.1% bovine serum albumin (Sigma), aprotinin (0.005 mg/ml, Boehringer Mannheim) and bestatin (0.1 mM, Sigma) as protease inhibitors. […] After addition of Ready Safe (Beckman) scintillation fluid, bound radioactivity was quantitated using a Trilux (Wallac) scintillation counter (approximately 40% counting efficiency of bound counts). […]

SNORF62 [10] = target: T1, SNORF62; experiment: Saturation binding of radioligands to SNORF62-transfected COS-7 membranes; parameters: The SNORF62 cDNA codes for a protein of 426 amino acids; expressed in transfected cells; host or cells: COS-7 (transient, DEAE-dextran); conditions: two values n=2
Procedure: COS-7 cells were transiently transfected with SNORF62 and membranes were prepared as described in Materials and Methods. […] Results are representative of 2 experiments performed in duplicate.
as §8, §9

[11] = rats, single subcutaneous injection 6 μg/100 g body weight

T3 sequence (Q9GZQ4 whole entry A395T): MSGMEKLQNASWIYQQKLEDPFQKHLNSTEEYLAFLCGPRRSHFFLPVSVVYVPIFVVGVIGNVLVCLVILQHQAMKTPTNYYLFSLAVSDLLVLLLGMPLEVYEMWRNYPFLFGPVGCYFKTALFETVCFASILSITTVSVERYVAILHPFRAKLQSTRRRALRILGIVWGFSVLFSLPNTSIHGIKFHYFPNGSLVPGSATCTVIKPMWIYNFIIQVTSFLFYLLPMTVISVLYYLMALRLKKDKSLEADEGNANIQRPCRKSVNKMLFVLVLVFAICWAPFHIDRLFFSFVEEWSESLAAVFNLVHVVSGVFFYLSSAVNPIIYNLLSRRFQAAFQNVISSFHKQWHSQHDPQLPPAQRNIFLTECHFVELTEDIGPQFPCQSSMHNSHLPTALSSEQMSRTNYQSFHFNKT
T2 sequence (Q9ESQ4 whole entry): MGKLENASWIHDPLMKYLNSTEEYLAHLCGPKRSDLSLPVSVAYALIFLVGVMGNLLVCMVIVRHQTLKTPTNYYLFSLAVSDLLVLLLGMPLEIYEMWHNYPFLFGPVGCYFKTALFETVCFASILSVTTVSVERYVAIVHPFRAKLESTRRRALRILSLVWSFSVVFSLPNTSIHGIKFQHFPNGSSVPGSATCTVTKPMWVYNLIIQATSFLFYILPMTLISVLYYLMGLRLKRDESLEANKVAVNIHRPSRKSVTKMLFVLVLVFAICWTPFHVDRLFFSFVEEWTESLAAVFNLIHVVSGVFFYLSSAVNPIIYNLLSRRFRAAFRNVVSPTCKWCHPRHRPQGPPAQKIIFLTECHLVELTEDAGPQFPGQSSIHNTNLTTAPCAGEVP

maximum response / agonist efficacy at SNORF62 (SNORF62 [3])	agonist efficacy in IP release assay (SNORF62 [4])	increases in intracellular Ca2+ (rat SNORF72)	stimulation of intracellular Ca2+ release (SNORF72 [5])	EC50 (SNORF62 [3]; stimulation of Ca2+ release, SNORF62-transfected COS-7 cells, n = 2-7 (Table 1A)) [nM]	Ki (SNORF72 [7]) [nM]	Ki (SNORF62 [8]) [nM]	Compound	stress-evoked rise in corticosterone ([1]; rats treated for 6 days)	time during which ACTH blood concentrations are elevated [1, 11] [h]	time plasma corticosterone levels remain elevated [1, 11] [h]	adrenal weight and the number of cells in the zona reticularis ([1]; repeated administration)	basal corticosterone secretion [2]	basal corticosterone and pregnenolone steroid secretion (rat adrenal gland slices)	IC50 (rat uterus membranes) [nM]	EC50 [6] [nM]	Bmax (SNORF72 [9])	Bmax (SNORF62 [10])
full agonists	full agonists	robust increases	stimulated	–	–	–	CC(C)C[C@H](NC(=O)[C@H](Cc1ccccc1)NC(=O)[C@@H](N)Cc1ccc(O)cc1)C(=O)N[C@@H](Cc1ccccc1)C(=O)N[C@@H](CCCNC(=N)N)C(=O)N1CCC[C@H]1C(=O)N[C@@H](CCCNC(=N)N)C(=O)N[C@@H](CC(N)=O)C(N)=O [porcine NMU-8, Y F L F R P R N—NH2]	absent	3 to 12	24	decreased	without effect	markedly increased	60	–	–	–
full agonists	full agonists	robust increases	stimulated	2.1 ± 0.5	1	0.398	YKVNEYQGPVAPSGGFFLFRPRN-NH2 [rat NMU-23, YKVNEYQGPVAPSGGFFLFRPRN—NH2]	–	–	–	–	directly decreased	–	1	0.2	–	–
–	–	–	–	–	–	–	[^125I]rat NMU-23: radioiodinated rat NMU-23 radioligand (NEN, specific activity 2200 Ci/mmole) (YKVNEYQGPVAPSGGFFLFRPRN-NH2; ends and bridges not checked; also: radioiodinated (125I), position not given here)	–	–	–	–	–	–	–	–	8.0 pmol/mg protein and 8.2 pmol/mg protein	16.5 pmol/mg protein and 9.9 pmol/mg protein
